Results reported in ChEMBL document CHEMBL4177635, “Discovery and structure-activity-relationship study of novel conformationally restricted indane analogues for mutant isocitric dehydrogenase 1 (IDH1) inhibitors” (Bioorg Med Chem Lett, 2017).

Columns and labels:
[1] = target: Isocitrate dehydrogenase [NADP] cytoplasmic (Homo sapiens, UniProt O75874, R132C); test: Inhibition of IDH1 R132C mutant in human HT1080 cells assessed as reduction in 2-hydroxyglutarate production after 48 hrs by LC-MS/MS analysis; assay type: cell-based
Sequence of Isocitrate dehydrogenase [NADP] cytoplasmic (Homo sapiens, UniProt O75874, R132C) (O75874 2-414 R132C limits assumed): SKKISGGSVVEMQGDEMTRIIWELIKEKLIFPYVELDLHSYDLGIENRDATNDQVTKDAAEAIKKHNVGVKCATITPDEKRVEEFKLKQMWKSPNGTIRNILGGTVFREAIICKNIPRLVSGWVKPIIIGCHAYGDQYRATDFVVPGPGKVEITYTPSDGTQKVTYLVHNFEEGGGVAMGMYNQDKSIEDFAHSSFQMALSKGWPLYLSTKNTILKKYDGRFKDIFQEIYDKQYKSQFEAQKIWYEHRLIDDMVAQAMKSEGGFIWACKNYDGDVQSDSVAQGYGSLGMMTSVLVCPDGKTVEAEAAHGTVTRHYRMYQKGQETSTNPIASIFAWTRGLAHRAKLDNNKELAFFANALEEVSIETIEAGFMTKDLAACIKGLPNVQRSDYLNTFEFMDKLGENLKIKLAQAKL

[2] = Intrinsic clearance in rat liver microsomes assessed per g protein at 1 uM by LC-MS/MS analysis; assay type: ADME, microsome
[3] = target: Isocitrate dehydrogenase [NADP] cytoplasmic (Homo sapiens, UniProt O75874, R132H); test: Inhibition of IDH1 R132H mutant (unknown origin) using alpha-ketoglutarate as substrate after 60 mins by resazurin dye based fluorescence assay
Sequence of Isocitrate dehydrogenase [NADP] cytoplasmic (Homo sapiens, UniProt O75874, R132H) (O75874 2-414 R132H limits assumed): as the sequence (O75874 2-414 R132C limits assumed) above, with C131H counted along it

[4] = Intrinsic clearance in mouse liver microsomes assessed per g protein at 1 uM by LC-MS/MS analysis; assay type: ADME, microsome
Homo sapiens [5] = species: Homo sapiens; test: Selectivity ratio of IC50 for IDH2 R140Q mutant (unknown origin) to IC50 for IDH2 R140Q mutant (unknown origin)
[6] = target: Isocitrate dehydrogenase [NADP] cytoplasmic (Homo sapiens, UniProt O75874); test: Inhibition of IDH1 (unknown origin) using isocitrate as substrate after 60 mins by resazurin dye based fluorescence assay
Sequence of Isocitrate dehydrogenase [NADP] cytoplasmic (Homo sapiens, UniProt O75874) (O75874 whole entry): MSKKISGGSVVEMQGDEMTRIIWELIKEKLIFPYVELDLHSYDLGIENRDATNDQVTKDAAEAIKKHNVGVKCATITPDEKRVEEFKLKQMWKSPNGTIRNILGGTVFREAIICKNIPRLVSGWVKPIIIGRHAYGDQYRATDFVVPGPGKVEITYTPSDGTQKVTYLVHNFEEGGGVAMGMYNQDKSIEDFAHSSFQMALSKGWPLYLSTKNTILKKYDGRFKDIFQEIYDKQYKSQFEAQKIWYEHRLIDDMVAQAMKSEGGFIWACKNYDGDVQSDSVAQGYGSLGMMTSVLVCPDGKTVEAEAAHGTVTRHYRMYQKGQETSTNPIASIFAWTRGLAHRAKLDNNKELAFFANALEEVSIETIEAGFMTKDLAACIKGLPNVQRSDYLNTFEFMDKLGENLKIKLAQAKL

[7] = Clearance in ICR mouse at 1 mg/kg, iv by HPLC-MS analysis; assay type: ADME, organism-based; conditions: in vivo
Homo sapiens [8] = species: Homo sapiens; test: Selectivity ratio of IC50 for IDH1 (unknown origin) to IC50 for […] (unknown origin)
Mus musculus [9] = test: Oral bioavailability in ICR mouse at 5 mg/kg by HPLC-MS analysis; assay type: ADME, organism-based; conditions: in vivo
Mus musculus [10] = test: AUC in ICR mouse at 5 mg/kg, po by HPLC-MS analysis; assay type: ADME, organism-based; conditions: in vivo
Mus musculus [11] = test: AUC in ICR mouse at 1 mg/kg, iv by HPLC-MS analysis; assay type: ADME, organism-based; conditions: in vivo
[12] = Volume of distribution at steady state in ICR mouse at 1 mg/kg, iv or 5 mg/kg, po by HPLC-MS analysis; assay type: ADME, organism-based; conditions: in vivo, read-out: Vdss
[13] = target: Isocitrate dehydrogenase [NADP], mitochondrial (Homo sapiens, UniProt P48735, R140Q); test: Inhibition of IDH2 R140Q mutant (unknown origin) using alpha-ketoglutarate as substrate pretreated for 60 mins followed by substrate addition measured after 60 mins by resazurin dye based fluorescence assay
Sequence of Isocitrate dehydrogenase [NADP], mitochondrial (P48735 40-452 R140Q limits assumed): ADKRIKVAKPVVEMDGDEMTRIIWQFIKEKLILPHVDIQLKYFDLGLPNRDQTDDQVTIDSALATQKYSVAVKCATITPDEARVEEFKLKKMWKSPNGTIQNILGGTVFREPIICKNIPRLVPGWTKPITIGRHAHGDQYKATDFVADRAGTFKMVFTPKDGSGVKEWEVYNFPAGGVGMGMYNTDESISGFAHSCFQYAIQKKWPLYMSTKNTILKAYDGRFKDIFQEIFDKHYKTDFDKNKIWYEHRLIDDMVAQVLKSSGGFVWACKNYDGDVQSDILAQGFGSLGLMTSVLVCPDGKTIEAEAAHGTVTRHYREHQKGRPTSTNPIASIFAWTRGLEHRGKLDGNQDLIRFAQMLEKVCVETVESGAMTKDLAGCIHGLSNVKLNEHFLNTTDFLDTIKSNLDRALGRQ

SMILES | IC50 [1] | IC50 [3] | further results
N#Cc1ccnc(N2C(=O)CC[C@H]2C(=O)N(c2cccc(F)c2)[C@@]2(C(=O)NC3CC(F)(F)C3)CCc3ccccc32)c1 | 25 nM | 85 nM | CLH [2]: 3.7 mL/min; CLH [4]: 54.1 mL/min
N#Cc1ccnc(N2C(=O)CC[C@H]2C(=O)N(c2cc(F)cc(F)c2)[C@@]2(C(=O)NC3CC(F)(F)C3)CCc3ccccc32)n1 | 14.9 nM | 22 nM | –
N#Cc1ccnc(N2C(=O)CC[C@H]2C(=O)N(c2cccc(F)c2)[C@@]2(C(=O)NCC3CCC(F)(F)CC3)CCc3ccccc32)c1 | 15 nM | 80 nM | CLH [2]: 24 mL/min; CLH [4]: 567 mL/min
N#Cc1ccnc(N2C(=O)CC[C@H]2C(=O)N(c2cccc(F)c2)[C@@]2(C(=O)NC3CCOCC3)CCc3ccccc32)c1 | – | > 1000 nM | –
O=C1CC[C@@H](C(=O)N(c2cc(F)cc(F)c2)[C@@]2(C(=O)NC3CC(F)(F)C3)CCc3ccccc32)N1c1ccccn1 | – | > 10000 nM | –
CS(=O)(=O)c1ccnc(N2C(=O)CC[C@H]2C(=O)N(c2cc(F)cc(F)c2)[C@@]2(C(=O)NC3CC(F)(F)C3)CCc3ccccc32)c1 | – | 2960 nM | –
N#Cc1ccnc(N2C(=O)CC[C@H]2C(=O)N(c2cccc(F)c2)[C@@]2(C(=O)NC3CC(F)(F)C3)CCc3cccc(F)c32)c1 | 52 nM | 51 nM | –
N#Cc1ccnc(N2C(=O)CC[C@H]2C(=O)N(c2cncc(F)c2)[C@@]2(C(=O)NC3CC(F)(F)C3)Cc3ccccc32)c1 | – | 270 nM | –
N#Cc1ccnc(N2CCC[C@H]2C(=O)N(c2cccc(F)c2)[C@@]2(C(=O)NC3CC(F)(F)C3)CCc3ccccc32)c1 | – | 635 nM | –
N#Cc1ccnc(N2C(=O)CC[C@H]2C(=O)N(c2cccc(F)c2)[C@@]2(C(=O)NC3CC(F)(F)C3)CCc3c(F)cccc32)c1 | 27 nM | 68 nM | –
N#Cc1ccnc(N2C(=O)CC[C@H]2C(=O)N(c2cccc(F)c2F)[C@@]2(C(=O)NC3CC(F)(F)C3)CCc3ccccc32)c1 | – | 148 nM | –
N#Cc1ccnc(N2C(=O)CC[C@@H]2C(=O)N(c2cccc(F)c2)[C@@]2(C(=O)NC3CC(F)(F)C3)CCc3ccccc32)c1 | – | > 10000 nM | –
N#Cc1ccnc(N2C(=O)CC[C@H]2C(=O)N(c2cc(F)ccc2F)[C@@]2(C(=O)NC3CC(F)(F)C3)CCc3ccccc32)c1 | – | 338 nM | –
N#Cc1ccnc(N2C(=O)CC[C@H]2C(=O)N(c2cc(F)cc(Cl)c2)[C@@]2(C(=O)NC3CC(F)(F)C3)CCc3ccccc32)c1 | – | 172 nM | –
N#Cc1ccnc(N2C(=O)CC[C@H]2C(=O)N(c2cccc(F)c2)[C@@]2(C(=O)NC3CC(F)(F)C3)CCc3cc(Cl)ccc32)c1 | 7.5 nM | 49 nM | Ratio IC50 (Homo sapiens [5]): > 2040; IC50 [6]: 1780 nM; clearance [7]: 20 mL/min/kg; Ratio IC50 (Homo sapiens [8]): 36; F (Mus musculus [9]): 38%; AUC (Mus musculus [10]): 3780 ng·h/mL; AUC (Mus musculus [11]): 834 ng·h/mL; Vd [12]: 1.9 L; IC50 [13]: > 100 nM
N#Cc1ccnc(N2C(=O)CC[C@H]2C(=O)N(c2cncc(F)c2)[C@@]2(C(=O)NC3CC(F)(F)C3)CCCc3ccccc32)c1 | – | 275 nM | –
N#Cc1cccc(N2C(=O)CC[C@H]2C(=O)N(c2cc(F)cc(F)c2)[C@@]2(C(=O)NC3CC(F)(F)C3)CCc3ccccc32)c1 | – | 2610 nM | –
N#Cc1ccnc(N2C(=O)OC[C@H]2C(=O)N(c2cc(F)cc(F)c2)[C@@]2(C(=O)NC3CC(F)(F)C3)CCc3ccccc32)c1 | 8.9 nM | 54 nM | –
N#Cc1ccnc(N2C(=O)CC[C@H]2C(=O)N(c2cc(F)cc(F)c2)[C@@]2(C(=O)NC3CC(F)(F)C3)CCc3ccccc32)c1 | 5 nM | 45 nM | Ratio IC50 (Homo sapiens [5]): > 2200; IC50 [6]: 3560 nM; clearance [7]: 8.33 mL/min/kg; Ratio IC50 (Homo sapiens [8]): 79; F (Mus musculus [9]): 87%; AUC (Mus musculus [10]): 3620 ng·h/mL; AUC (Mus musculus [11]): 1984 ng·h/mL; Vd [12]: 1 L; IC50 [13]: > 100 nM
O=C1CC[C@@H](C(=O)N(c2cc(F)cc(F)c2)[C@@]2(C(=O)NC3CC(F)(F)C3)CCc3ccccc32)N1c1cnccn1 | – | 128 nM | –

SMILES | IC50 [1] | IC50 [3] | further results
N#Cc1ccnc(N2C(=O)OC[C@H]2C(=O)N(c2cccc(F)c2)[C@@]2(C(=O)NC3CC(F)(F)C3)CCc3ccccc32)c1 | 19 nM | 58 nM | –
COc1ccnc(N2C(=O)CC[C@H]2C(=O)N(c2cc(F)cc(F)c2)[C@@]2(C(=O)NC3CC(F)(F)C3)CCc3ccccc32)c1 | – | > 10000 nM | –
N#Cc1ccnc(N2C(=O)CC[C@H]2C(=O)N(c2cc(F)cc(F)c2)[C@@]2(C(=O)NC3CC(F)(F)C3)CCc3c(Cl)cccc32)c1 | 14 nM | 53 nM | –
N#Cc1ccnc(N2C(=O)CC[C@H]2C(=O)N(c2cccc(F)c2)[C@@]2(C(=O)Nc3ccccc3)CCc3ccccc32)c1 | – | > 1000 nM | –
N#Cc1ccnc(N2C(=O)OC[C@H]2C(=O)N(c2cccc(F)c2)[C@@]2(C(=O)NC3CC(F)(F)C3)CCc3cccc(Cl)c32)n1 | 29 nM | 5.6 nM | –
N#Cc1ccnc(N2C(=O)CC[C@H]2C(=O)N(c2cc(F)cc(F)c2)[C@@]2(C(=O)NC3CC(F)(F)C3)CCc3cccc(Cl)c32)c1 | – | 180 nM | –
N#Cc1ccnc(N2C(=O)CC[C@H]2C(=O)N(c2cccc(F)c2)[C@@]2(C(=O)NC3CC(F)(F)C3)CCc3c(Cl)cccc32)c1 | 21 nM | 67 nM | –
N#Cc1ccnc(N2C(=O)OC[C@H]2C(=O)N(c2cc(F)cc(F)c2)[C@@]2(C(=O)NC3CC(F)(F)C3)CCc3ccccc32)n1 | 308 nM | 40 nM | –
N#Cc1ccnc(N2C(=O)CC[C@H]2C(=O)N(c2cccc(F)c2)[C@@]2(C(=O)NC3CC(F)(F)C3)CCc3cccc(Cl)c32)n1 | 42 nM | 22 nM | –
N#Cc1ccnc(N2C(=O)CC[C@H]2C(=O)N(c2cccc(F)c2)[C@@]2(C(=O)NC3CC(F)(F)C3)CCc3ccc(F)cc32)c1 | – | 138 nM | –
N#Cc1ccnc(N2C(=O)CC[C@H]2C(=O)N(c2cccc(F)c2)[C@@]2(C(=O)NC3CC(F)(F)C3)CCc3cc(F)ccc32)c1 | – | 108 nM | –
N#Cc1ccnc(N2C(=O)CC[C@H]2C(=O)N(c2ccccc2)[C@@]2(C(=O)NC3CC(F)(F)C3)CCc3ccccc32)c1 | – | 260 nM | –
N#Cc1ccnc(N2C(=O)CC[C@H]2C(=O)N(c2cncc(F)c2)[C@@]2(C(=O)NC3CC(F)(F)C3)CCc3ccccc32)c1 | 21 nM | 94 nM | –
N#Cc1ccnc(N2C(=O)CC[C@H]2C(=O)N(c2ccc(F)c(F)c2)[C@@]2(C(=O)NC3CC(F)(F)C3)CCc3ccccc32)c1 | – | 95 nM | –
N#Cc1ccnc(N2C(=O)OC[C@H]2C(=O)N(c2cccc(F)c2)[C@@]2(C(=O)NC3CC(F)(F)C3)CCc3cccc(Cl)c32)c1 | 9 nM | 42 nM | –
N#Cc1ccnc(N2C(=O)CC[C@H]2C(=O)N(c2ccc(Cl)c(F)c2)[C@@]2(C(=O)NC3CC(F)(F)C3)CCc3ccccc32)c1 | – | 186 nM | –
N#Cc1ccnc(N2C(=O)CC[C@H]2C(=O)N(c2cccc(F)c2)[C@@]2(C(=O)NCC3CC3)CCc3ccccc32)c1 | – | 266 nM | –
N#Cc1ccnc(N2C(=O)CC[C@H]2C(=O)N(c2cccc(F)c2)[C@@]2(C(=O)NC3CCCCC3)CCc3ccccc32)c1 | < 10 nM | 37 nM | CLH [2]: 1145 mL/min; CLH [4]: 2359 mL/min
N#Cc1ccnc(N2C(=O)CC[C@H]2C(=O)N(c2cccc(Cl)c2)[C@@]2(C(=O)NC3CC(F)(F)C3)CCc3ccccc32)c1 | – | 255 nM | –
